From the supplement of paper PMC11208160

Test: recombinant barcode read abundance after kanamycin selection (control-corrected) (log10(CPM+1)); higher = more efficient recombination; sequences stand for … in AGTGCAGAGAAAATCGGCCAGTTTTCTCTGCCTGCAGTCCGCATGCCGT…ATTTATGCAGCGGACTGCCTTTCTCCCAAAGTGATAAACCGGACAGTATCATGGACCGGTTTTCCCGGTAATCCGTATTTGCAAGGTTGGTTTCACT; site = the 11-nt target
Description: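 Same pooled E. coli target screen (IS621 bridge recombinase, kanamycin selection, control-corrected CPM, mean of 2 biological replicates). Here the two core-binding nucleotides of the LTG and RTG of the bridge RNA target-binding loop are mutated. Target and donor CT cores are held constant, and the other 9 guide positions match the target. The target is read from the library oligo sequence. Molecule = full bridge RNA written as DNA: nt 1-80 from the library oligo, rest WT scaffold.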

Sequence	recombinant barcode read abundance (log10)
TAAGAATGCTGGGTTCTAACCTGTTGCCTAG [TAAGAATCTAG_LTGcore_GC_RTGcore_CT] (site TAAGAATCTAG) (LTG core: GC, RTG core: CT)	0.216
AGGCGGGCGTGGGTTCTAACCTGTTGCGGCG [AGGCGGGCTCC_LTGcore_CG_RTGcore_CG] (site AGGCGGGCTCC) (LTG core: CG, RTG core: CG)	0.0653
CGGTCCCACTGGGTTCTAACCTGTTGCCAAG [CGGTCCCCTTG_LTGcore_AC_RTGcore_CT] (site CGGTCCCCTTG) (LTG core: AC, RTG core: CT)	0.0364
AAACATGTCTGGGTTCTAACCTGTTGCCTGA [AAACATGCTAG_LTGcore_TC_RTGcore_TC] (site AAACATGCTAG) (LTG core: TC, RTG core: TC)	0.0728
AAACAGTATTGGGTTCTAACCTGTTGCCTAG [AAACAGTCTAG_LTGcore_AT_RTGcore_CT] (site AAACAGTCTAG) (LTG core: AT, RTG core: CT)	0.571
AAACAGTCGTGGGTTCTAACCTGTTGCCTAG [AAACAGTCTAG_LTGcore_CG_RTGcore_CT] (site AAACAGTCTAG) (LTG core: CG, RTG core: CT)	1.17
GGTGCCCTTTGGGTTCTAACCTGTTGCCGAG [GGTGCCCCTCG_LTGcore_TT_RTGcore_CT] (site GGTGCCCCTCG) (LTG core: TT, RTG core: CT)	0.0486
GGTGCCCGTTGGGTTCTAACCTGTTGCCGAC [GGTGCCCCTCG_LTGcore_GT_RTGcore_GT] (site GGTGCCCCTCG) (LTG core: GT, RTG core: GT)	0.151
GTCGCCCCTTGGGTTCTAACCTGTTGCTACC [GTCGCCCCTTA_LTGcore_CT_RTGcore_GG] (site GTCGCCCCTTA) (LTG core: CT, RTG core: GG)	0.487
GAGTCCTAGTGGGTTCTAACCTGTTGCCTCT [GAGTCCTCTAG_LTGcore_AG_RTGcore_AG] (site GAGTCCTCTAG) (LTG core: AG, RTG core: AG)	0.0613
GAGGCCTATTGGGTTCTAACCTGTTGCCAAT [GAGGCCTCTTG_LTGcore_AT_RTGcore_AT] (site GAGGCCTCTTG) (LTG core: AT, RTG core: AT)	0.122
ATGCTTTCTTGGGTTCTAACCTGTTGCCTAA [ATGCTTTCTAG_LTGcore_CT_RTGcore_TT] (site ATGCTTTCTAG) (LTG core: CT, RTG core: TT)	0.322
AAACATGGTTGGGTTCTAACCTGTTGCCTAC [AAACATGCTAG_LTGcore_GT_RTGcore_GT] (site AAACATGCTAG) (LTG core: GT, RTG core: GT)	0.108
GGCTCCCGTTGGGTTCTAACCTGTTGCGGAG [GGCTCCCCTCC_LTGcore_GT_RTGcore_CT] (site GGCTCCCCTCC) (LTG core: GT, RTG core: CT)	0.546
GCGGGACGCTGGGTTCTAACCTGTTGCCTGC [GCGGGACCTAG_LTGcore_GC_RTGcore_GC] (site GCGGGACCTAG) (LTG core: GC, RTG core: GC)	0.0844
AGGCCTCCTTGGGTTCTAACCTGTTGCCTGC [AGGCCTCCTAG_LTGcore_CT_RTGcore_GC] (site AGGCCTCCTAG) (LTG core: CT, RTG core: GC)	0.112
TGATACCCTTGGGTTCTAACCTGTTGCGTTG [TGATACCCTAC_LTGcore_CT_RTGcore_CA] (site TGATACCCTAC) (LTG core: CT, RTG core: CA)	1.25

Sequence	recombinant barcode read abundance (log10)
GAGTCCATGTGGGTTCTAACCTGTTGCGTAG [GAGTCCACTAC_LTGcore_TG_RTGcore_CT] (site GAGTCCACTAC) (LTG core: TG, RTG core: CT)	0.0936
GAGGCCTGCTGGGTTCTAACCTGTTGCCAAG [GAGGCCTCTTG_LTGcore_GC_RTGcore_CT] (site GAGGCCTCTTG) (LTG core: GC, RTG core: CT)	0.235
AGGCGGGTATGGGTTCTAACCTGTTGCGGAG [AGGCGGGCTCC_LTGcore_TA_RTGcore_CT] (site AGGCGGGCTCC) (LTG core: TA, RTG core: CT)	0.232
TGTATTCGTTGGGTTCTAACCTGTTGCCTAC [TGTATTCCTAG_LTGcore_GT_RTGcore_GT] (site TGTATTCCTAG) (LTG core: GT, RTG core: GT)	0.00818
GCGCGACGCTGGGTTCTAACCTGTTGCTTGC [GCGCGACCTAA_LTGcore_GC_RTGcore_GC] (site GCGCGACCTAA) (LTG core: GC, RTG core: GC)	0.0645
GGGCGGAATTGGGTTCTAACCTGTTGCGGAT [GGGCGGACTCC_LTGcore_AT_RTGcore_AT] (site GGGCGGACTCC) (LTG core: AT, RTG core: AT)	0.0199
GGTGCCCTATGGGTTCTAACCTGTTGCCGAG [GGTGCCCCTCG_LTGcore_TA_RTGcore_CT] (site GGTGCCCCTCG) (LTG core: TA, RTG core: CT)	0.122
AGGCGGTGTTGGGTTCTAACCTGTTGCTTAC [AGGCGGTCTAA_LTGcore_GT_RTGcore_GT] (site AGGCGGTCTAA) (LTG core: GT, RTG core: GT)	0.278
TGTATTCCTTGGGTTCTAACCTGTTGCCTGT [TGTATTCCTAG_LTGcore_CT_RTGcore_AC] (site TGTATTCCTAG) (LTG core: CT, RTG core: AC)	0.0232
TAAGAATAGTGGGTTCTAACCTGTTGCCTCT [TAAGAATCTAG_LTGcore_AG_RTGcore_AG] (site TAAGAATCTAG) (LTG core: AG, RTG core: AG)	0.0922
TAAGAATCTTGGGTTCTAACCTGTTGCCTAA [TAAGAATCTAG_LTGcore_CT_RTGcore_TT] (site TAAGAATCTAG) (LTG core: CT, RTG core: TT)	0.175
GGCTCCCCTTGGGTTCTAACCTGTTGCGGGG [GGCTCCCCTCC_LTGcore_CT_RTGcore_CC] (site GGCTCCCCTCC) (LTG core: CT, RTG core: CC)	0.0955
TAGAGGGGCTGGGTTCTAACCTGTTGCGGAG [TAGAGGGCTCC_LTGcore_GC_RTGcore_CT] (site TAGAGGGCTCC) (LTG core: GC, RTG core: CT)	0.284
TTATAAATCTGGGTTCTAACCTGTTGCCTGA [TTATAAACTAG_LTGcore_TC_RTGcore_TC] (site TTATAAACTAG) (LTG core: TC, RTG core: TC)	0.244
AGGCGGGCTTGGGTTCTAACCTGTTGCGGGG [AGGCGGGCTCC_LTGcore_CT_RTGcore_CC] (site AGGCGGGCTCC) (LTG core: CT, RTG core: CC)	0.756
GAGTCCTCTTGGGTTCTAACCTGTTGCCTCT [GAGTCCTCTAG_LTGcore_CT_RTGcore_AG] (site GAGTCCTCTAG) (LTG core: CT, RTG core: AG)	1.65
ACGGGACCTTGGGTTCTAACCTGTTGCAGGG [ACGGGACCTCT_LTGcore_CT_RTGcore_CC] (site ACGGGACCTCT) (LTG core: CT, RTG core: CC)	0.931

Test: recombinant barcode read abundance after kanamycin selection (control-corrected) (log10(CPM+1)); higher = more efficient recombination; sequences stand for … in AGTGCAGAGAAAATCGGCCAGTTTTCTCTGCCTGCAGTCCGCATGCCGT…AGATTTATGCAGCGGACTGCCTTTCTCCCAAAGTGATAAACCGGACAGTATCATGGACCGGTTTTCCCGGTAATCCGTATTTGCAAGGTTGGTTTCACT; site = the 11-nt target
Summary of the method: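 Targets were screened in pooled form in E. coli against IS621 bridge RNA target-binding loops. Recombination efficiency is based on barcode counts at recombinant junctions in counts per million, averaged and corrected for the control. Numbers are shown as log10(CPM+1), with duplicate plates on chloramphenicol/ampicillin LB agar (control) or chloramphenicol/ampicillin/kanamycin with 0.1 mM IPTG.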

Sequence	recombinant barcode read abundance (log10)
ACAGATTCTTGGGTTCTAACCTGTTGCCT (site ACAGATTCTAG)	1.73
GAGCCTACTTGGGTTCTAACCTGTTGCTA (site GAGCCTACTTA)	1.02
AATTTAGCTTGGGTTCTAACCTGTTGCCT (site AATTTAGCTAG)	0.244
ATTGGGTCTTGGGTTCTAACCTGTTGCCT (site ATTGGATCTAG)	0.445
ACTGGTTCTTGGGTTCTAACCTGTTGCCG (site ACTGGTTCTCG)	0.696
GGGGCCTCTTGGGTTCTAACCTGTTGCTT (site GGGGCGTCTAA)	0.225
AGACCACCTTGGGTTCTAACCTGTTGCCT (site AAACCACCTAG)	0.383
TATAATACTTGGGTTCTAACCTGTTGCGA (site TATACTACTTA)	0.0449
CCACACACTTGGGTTCTAACCTGTTGCCT (site CCACACACTAG)	0.345
AGGGTCACTTGGGTTCTAACCTGTTGCCT (site ACGGTCACTAG)	0.653
TATTGGACTTGGGTTCTAACCTGTTGCTT (site GATTGGACTAA)	0.0435
TGTCTGTCTTGGGTTCTAACCTGTTGCTA (site TGTCTGTCTTA)	0.0943
TACGAACCTTGGGTTCTAACCTGTTGCGT (site TACGAACCTAC)	2.94
AGCCACGCTTGGGTTCTAACCTGTTGCCT (site AGCCACCCTAG)	0.27
CCGTCGTCTTGGGTTCTAACCTGTTGCCT (site CCGTCGTCTAG)	0.255
CGCCACACTTGGGTTCTAACCTGTTGCCT (site CGACACACTAG)	0.426
